Our source for the IC50 and solubility values is ChEMBL document CHEMBL5357031, “Design and Synthesis of Cytotoxic Water-Soluble Rocaglaol Derivatives against HEL Cells by Inhibiting Fli-1” (J Nat Prod, 2024).

A word on the IC50: it is the concentration that gives 50% inhibition. The solubility is the concentration that dissolves in the medium under given conditions.

Data set [1] concerns SW480. The data set is described as follows: Cytotoxicity against human SW480 cells assessed as cell growth inhibition incubated for 72 hrs by MTT assay. The following applies: Homo sapiens, SW480, 72 h. The data set is classed as functional, cell-based.
Data set [2] is described as follows: Solubility of compound in PBS at pH 7.4 at 2 mg measured for 24 hrs by HPLC-UV analysis. It is filed as physicochemical.
Data set [3] concerns HEL. In words: Cytotoxicity against HEL cells assessed as cell growth inhibition incubated for 72 hrs by MTT assay. It is filed as functional, cell-based, Homo sapiens.
Data set [4] has as its system MDA-MB-231. The data set is described as follows: cells. Conditions: Homo sapiens, MDA-MB-231, 72 h.
Description: (§1) Cytotoxicity against human MDA-MB-231 cells assessed as cell growth inhibition incubated for 72 hrs by MTT assay
The test system of data set [5] is MDA-MB-231.
Description: as §1

Converted amounts (≈) assume the structure as drawn. Structures can show the parent of a compound that is named as a salt.

On to `COc1cc(OC)c2c(c1)O[C@@]1(c3ccc(O)cc3)[C@H](c3ccccc3)C[C@@H](O)[C@@]21O` (racemic), for which the IC50 in data set [1] is more than 1000 nM; in data set [3] (Homo sapiens, HEL, 72 h), 180 nM; in data set [4], 350 nM. In addition, the solubility at 24 h in data set [2] was determined as 50 µg/mL (≈ 0.119 mM).
`COc1cc(OC)c2c(c1)O[C@@]1(c3ccc(OC)c(CN4CCOCC4)c3)[C@H](c3ccccc3)C[C@@H](O)[C@@]21O` (racemic): the IC50 is more than 1000 nM in data set [1]; 140 nM in data set [3] (Homo sapiens, HEL, 72 h); more than 1000 nM in data set [4].
As to `CCCCN(CCCC)Cc1cc([C@@]23Oc4cc(OC)cc(OC)c4[C@]2(O)[C@H](O)C[C@H]3c2ccccc2)ccc1OC` (racemic), the IC50 in data set [1] is more than 1000 nM; in data set [3] (Homo sapiens, HEL, 72 h), more than 1000 nM; in data set [4], more than 1000 nM.
Regarding `COc1cc(OC)c2c(c1)O[C@@]1(c3ccc(O)c(CN4CCCCC4)c3)[C@H](c3ccccc3)C[C@@H](O)[C@@]21O` (racemic), the IC50 in data set [1] was more than 1000 nM; in data set [3] (Homo sapiens, HEL, 72 h), more than 1000 nM; in data set [4] it was more than 1000 nM.
As to `CCN(CC)Cc1cc([C@@]23Oc4cc(OC)cc(OC)c4[C@]2(O)[C@H](O)C[C@H]3c2ccccc2)ccc1O` (racemic), the IC50 in data set [1] was more than 1000 nM; in data set [3] (Homo sapiens, HEL, 72 h) it was more than 1000 nM; in data set [4], more than 1000 nM.
Turning to `COc1cc(OC)c2c(c1)O[C@@]1(c3ccc(OCCn4cnc5ccccc54)cc3)[C@H](c3ccccc3)C[C@@H](O)[C@@]21O` (racemic), the IC50 is more than 1000 nM in data set [1]; more than 1000 nM in data set [3] (Homo sapiens, HEL, 72 h); more than 1000 nM in data set [4].
`COc1cc(OC)c2c(c1)O[C@@]1(c3ccc(OCCCCCCCCN4CCN(C)CC4)cc3)[C@H](c3ccccc3)C[C@@H](O)[C@@]21O` (racemic): the IC50 was found to be 690 nM in data set [1]; 460 nM in data set [3] (Homo sapiens, HEL, 72 h); 450 nM in data set [4].
Consider `COc1cc(OC)c2c(c1)O[C@@]1(c3ccc(OCCCCn4ccnc4)cc3)[C@H](c3ccccc3)C[C@@H](O)[C@@]21O` (racemic), for which the IC50 in data set [1] is more than 1000 nM; in data set [3] (Homo sapiens, HEL, 72 h), 560 nM; in data set [4] it was 650 nM.
Taken in the same sequence, the figures for `COc1cc(OC)c2c(c1)O[C@@]1(c3ccc(OCCn4ccnc4)cc3)[C@H](c3ccccc3)C[C@@H](O)[C@@]21O` (racemic) were more than 1000 nM, more than 1000 nM and more than 1000 nM.
`COc1cc(OC)c2c(c1)O[C@@]1(c3ccc(OC)c(CN4CCCC4)c3)[C@H](c3ccccc3)C[C@@H](O)[C@@]21O` (racemic): the IC50 in data set [1] was more than 1000 nM; in data set [3] (Homo sapiens, HEL, 72 h), 670 nM; in data set [4], more than 1000 nM.
For `COc1cc(OC)c2c(c1)O[C@@]1(c3ccc(OC)c(CN(C)C)c3)[C@H](c3ccccc3)C[C@@H](O)[C@@]21O` (racemic), the IC50 in data set [1] was more than 1000 nM; in data set [3] (Homo sapiens, HEL, 72 h), 190 nM; in data set [4], more than 1000 nM.
On to `COc1cc(OC)c2c(c1)O[C@@]1(c3ccc(OCCN4CCOCC4)cc3)[C@H](c3ccccc3)C[C@@H](O)[C@@]21O` (racemic), for which the IC50 in data set [1] is more than 1000 nM; in data set [3] (Homo sapiens, HEL, 72 h), more than 1000 nM; in data set [4] it was more than 1000 nM.
As for `COc1cc(OC)c2c(c1)O[C@@]1(c3ccc(OCCCCCn4ccnc4)cc3)[C@H](c3ccccc3)C[C@@H](O)[C@@]21O` (racemic), the IC50 in data set [1] was 880 nM; in data set [3] (Homo sapiens, HEL, 72 h) it was 310 nM; in data set [4], 320 nM.
The matching figures for `COc1cc(OC)c2c(c1)O[C@@]1(c3ccc(O)c(CN(C)C)c3)[C@H](c3ccccc3)C[C@@H](O)[C@@]21O` (racemic): more than 1000 nM, more than 1000 nM and more than 1000 nM.
Taken in the same sequence, the figures for `COc1cc(OC)c2c(c1)O[C@@]1(c3ccc(O)c(CN4CCCC4)c3)[C@H](c3ccccc3)C[C@@H](O)[C@@]21O` (racemic) were more than 1000 nM, more than 1000 nM and more than 1000 nM.
As for `CCCCN(CCCC)Cc1cc([C@@]23Oc4cc(OC)cc(OC)c4[C@]2(O)[C@H](O)C[C@H]3c2ccccc2)ccc1O` (racemic), the IC50 in data set [1] was more than 1000 nM; in data set [3] (Homo sapiens, HEL, 72 h), more than 1000 nM; in data set [4] it was more than 1000 nM.
On to `COc1cc(OC)c2c(c1)O[C@@]1(c3ccc(OCCCCCCCCn4cccc4)cc3)[C@H](c3ccccc3)C[C@@H](O)[C@@]21O` (racemic), for which the IC50 in data set [1] is more than 1000 nM; in data set [3] (Homo sapiens, HEL, 72 h), more than 1000 nM; in data set [4], more than 1000 nM.
Consider `CCN(CC)Cc1cc([C@@]23Oc4cc(OC)cc(OC)c4[C@]2(O)[C@H](O)C[C@H]3c2ccccc2)ccc1OC` (racemic), for which the half-inhibitory concentration (IC50) in data set [1] was 430 nM; in data set [3] (Homo sapiens, HEL, 72 h) it was 120 nM; in data set [4], more than 1000 nM.
Taken in the same sequence, the figures for `COc1cc(OC)c2c(c1)O[C@@]1(c3ccc(OC)c(CN4CCCCC4)c3)[C@H](c3ccccc3)C[C@@H](O)[C@@]21O` (racemic) were more than 1000 nM, 570 nM and more than 1000 nM.
The matching figures for `COc1cc(OC)c2c(c1)O[C@@]1(c3ccc(OCCN4CCCC4)cc3)[C@H](c3ccccc3)C[C@@H](O)[C@@]21O` (racemic): more than 1000 nM, more than 1000 nM and more than 1000 nM.
The matching figures for `COc1cc(OC)c2c(c1)O[C@@]1(c3ccc(O)c(CN4CCOCC4)c3)[C@H](c3ccccc3)C[C@@H](O)[C@@]21O` (racemic): more than 1000 nM, 490 nM and more than 1000 nM.
Consider `COc1cc(OC)c2c(c1)O[C@@]1(c3ccc(OCCCCCN4CCN(C)CC4)cc3)[C@H](c3ccccc3)C[C@@H](O)[C@@]21O` (racemic; form 1), for which the IC50 in data set [1] was found to be 550 nM; in data set [3] (hel), 230 nM; in data set [5], 110 nM. In data set [2], this compound returned a solubility at 24 h of 8900 µg/mL (≈ 15.1 mM).
As for `COc1cccc2c1C(=O)c1c(O)c3c(c(O)c1C2=O)C[C@@](O)(C(=O)CO)C[C@@H]3O[C@H]1C[C@H](N)[C@H](O)[C@H](C)O1` [DOXORUBICIN HYDROCHLORIDE], the IC50 was 120 nM in data set [1]; 240 nM in data set [3] (Homo sapiens, HEL, 72 h); 500 nM in data set [4].
